Drawing on patent US11649255B2, “Indazoles as hematopoietic progenitor kinase 1 (HPK1) inhibitors and methods using same” (1st Biotherapeutics, Inc., priority 2020, dated 2023), this text covers IC50 for 26 compounds.

This assay concerns the target recombinant human HPK1 (Homo sapiens (Human), UniProt Q92918). The assay is described as follows: HPK1 kinase assay (ADP-Glo). It is filed as biochemical. Conditions: 25 μM ATP, MBP substrate. Summed up: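 Activity was read as ADP formed, detected by ADP-Glo luminescence after the reaction of 5 ng recombinant human HPK1 with MBP and ATP (stocks 0.5 μg/μl and 25 μM) for 40 min at 30 °C. Buffer was Tris pH 7.5 with MgCl2, BSA and DTT, with compound in 0.5% DMSO. IC50 came from inhibition curves.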
On the technique in general: ADP-Glo turns the ADP formed in a reaction into a luminescent signal.

Chain of recombinant human HPK1 (Q92918 whole entry): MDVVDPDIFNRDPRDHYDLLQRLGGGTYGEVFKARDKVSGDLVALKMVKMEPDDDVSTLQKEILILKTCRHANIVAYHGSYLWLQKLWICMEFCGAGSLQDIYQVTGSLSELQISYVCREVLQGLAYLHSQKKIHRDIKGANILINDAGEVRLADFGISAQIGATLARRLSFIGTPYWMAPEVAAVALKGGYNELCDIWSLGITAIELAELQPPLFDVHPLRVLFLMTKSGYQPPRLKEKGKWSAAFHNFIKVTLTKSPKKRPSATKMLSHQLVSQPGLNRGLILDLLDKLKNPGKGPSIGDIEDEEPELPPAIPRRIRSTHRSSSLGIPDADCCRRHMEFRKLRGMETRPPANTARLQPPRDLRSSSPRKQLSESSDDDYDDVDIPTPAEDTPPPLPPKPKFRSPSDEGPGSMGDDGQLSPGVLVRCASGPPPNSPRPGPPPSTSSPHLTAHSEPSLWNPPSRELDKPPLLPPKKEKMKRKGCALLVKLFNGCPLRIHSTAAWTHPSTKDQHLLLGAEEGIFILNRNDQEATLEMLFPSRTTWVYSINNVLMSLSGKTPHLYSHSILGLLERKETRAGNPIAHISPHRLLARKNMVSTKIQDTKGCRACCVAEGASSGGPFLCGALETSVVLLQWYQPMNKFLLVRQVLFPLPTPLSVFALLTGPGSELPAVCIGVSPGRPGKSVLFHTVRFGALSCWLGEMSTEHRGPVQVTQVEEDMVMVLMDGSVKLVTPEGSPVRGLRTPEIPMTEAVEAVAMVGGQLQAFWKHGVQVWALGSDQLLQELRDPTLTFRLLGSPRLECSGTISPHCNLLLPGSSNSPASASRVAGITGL

As a reminder, the IC50 is the concentration needed to halve the response being measured. For `COCC1CN(c2c(F)c(Cl)c(-c3ccn4nc(NC(=O)[C@@H]5C[C@@H]5F)cc4c3)c3cn[nH]c23)C1` [Example 627, (1S,2S)-N-(5-(5-chloro-6-fluoro-7-(3-(methoxymethyl)azetidin-1-yl)-1H-indazol-4-yl)pyrazolo[1,5-a]pyridin-2-yl)-2-fluorocyclopropane-1-carboxamide], the 50% inhibitory concentration (IC50) is less than 0.1 µM.

Regarding `O=C(Nc1cc2cc(-c3c(Cl)c(F)c(N4CCS(=O)(=O)CC4)c4[nH]ncc34)ccn2n1)[C@@H]1C[C@@H]1F` [Example 628, (1S,2S)-N-(5-(5-chloro-7-(1,1-dioxidothiomorpholino)-6-fluoro-1H-indazol-4-yl)pyrazolo[1,5-a]pyridin-2-yl)-2-fluorocyclopropane-1-carboxamide], the IC50 is less than 0.1 µM.

As for `CC1CN(c2c(F)c(Cl)c(-c3ccn4nc(NC(=O)[C@@H]5C[C@@H]5F)cc4c3)c3cn[nH]c23)C1` [Example 630, (1S,2S)-N-(5-(5-chloro-6-fluoro-7-(3-methylazetidin-1-yl)-1H-indazol-4-yl)pyrazolo[1,5-a]pyridin-2-yl)-2-fluorocyclopropane-1-carboxamide], the IC50 is less than 0.1 µM. Then `O=C(Nc1cc2cc(-c3c(Cl)c(F)c(N4CCSCC4)c4[nH]ncc34)ccn2n1)[C@@H]1C[C@@H]1F` [Example 631, (1S,2S)-N-(5-(5-chloro-6-fluoro-7-thiomorpholino-1H-indazol-4-yl)pyrazolo[1,5-a]pyridin-2-yl)-2-fluorocyclopropane-1-carboxamide], with less than 0.1 µM. Then `CC1(F)CN(c2c(F)c(Cl)c(-c3ccn4nc(NC(=O)[C@@H]5C[C@@H]5F)cc4c3)c3cn[nH]c23)C1` [Example 632, (1S,2S)-N-(5-(5-chloro-6-fluoro-7-(3-fluoro-3-methylazetidin-1-yl)-1H-indazol-4-yl)pyrazolo[1,5-a]pyridin-2-yl)-2-fluorocyclopropane-1-carboxamide], with less than 0.1 µM. Then `N#C/C=C/c1c(F)c(Cl)c(-c2ccn3nc(NC(=O)[C@@H]4C[C@@H]4F)cc3c2)c2cn[nH]c12` [Example 633, (1S,2S)-N-(5-(5-chloro-7-((E)-2-cyanovinyl)-6-fluoro-1H-indazol-4-yl)pyrazolo[1,5-a]pyridin-2-yl)-2-fluorocyclopropane-1-carboxamide], with less than 0.1 µM; and `O=C(Nc1cc2cc(-c3c(Cl)c(F)c(CF)c4[nH]ncc34)ccn2n1)[C@@H]1C[C@@H]1F` [Example 634, (1S,2S)-N-(5-(5-chloro-6-fluoro-7-(fluoromethyl)-1H-indazol-4-yl)pyrazolo[1,5-a]pyridin-2-yl)-2-fluorocyclopropane-1-carboxamide], with less than 0.1 µM. In the case of `O=C(Nc1cc2cc(-c3c(Cl)c(F)c(N4CC[S+]([O-])CC4)c4[nH]ncc34)ccn2n1)[C@@H]1C[C@@H]1F` [Example 635, (1S,2S)-N-(5-(5-chloro-6-fluoro-7-(1-oxidothiomorpholino)-1H-indazol-4-yl)pyrazolo[1,5-a]pyridin-2-yl)-2-fluorocyclopropane-1-carboxamide], the concentration for half-maximal inhibition (IC50) was less than 0.1 µM. Then `N#CCNc1c(F)c(Cl)c(-c2ccn3nc(NC(=O)[C@@H]4C[C@@H]4F)cc3c2)c2cn[nH]c12` [Example 636, (1S,2S)-N-(5-(5-chloro-7-((cyanomethyl)amino)-6-fluoro-1H-indazol-4-yl)pyrazolo[1,5-a]pyridin-2-yl)-2-fluorocyclopropane-1-carboxamide], with less than 0.1 µM. Then `O=C(Nc1cc2cc(-c3c(Cl)c(F)c(-n4cccc4)c4[nH]ncc34)ccn2n1)[C@@H]1C[C@@H]1F` [Example 637, (1S,2S)-N-(5-(5-chloro-6-fluoro-7-(1H-pyrrol-1-yl)-1H-indazol-4-yl)pyrazolo[1,5-a]pyridin-2-yl)-2-fluorocyclopropane-1-carboxamide], with less than 0.1 µM; and `CC(C)(C#N)Nc1c(F)c(Cl)c(-c2ccn3nc(NC(=O)[C@@H]4C[C@@H]4F)cc3c2)c2cn[nH]c12` [Example 638, (1S,2S)-N-(5-(5-chloro-7-((2-cyanopropan-2-yl)amino)-6-fluoro-1H-indazol-4-yl)pyrazolo[1,5-a]pyridin-2-yl)-2-fluorocyclopropane-1-carboxamide], with less than 0.1 µM; and `C=C(C)c1c(F)c(Cl)c(-c2ccn3nc(NC(=O)[C@@H]4C[C@@H]4F)cc3c2)c2cn[nH]c12` [Example 639, (1S,2S)-N-(5-(5-chloro-6-fluoro-7-(prop-1-en-2-yl)-1H-indazol-4-yl)pyrazolo[1,5-a]pyridin-2-yl)-2-fluorocyclopropane-1-carboxamide], with less than 0.1 µM. For `CC(C)c1c(F)c(Cl)c(-c2ccn3nc(NC(=O)[C@@H]4C[C@@H]4F)cc3c2)c2cn[nH]c12` [Example 640, (1S,2S)-N-(5-(5-chloro-6-fluoro-7-isopropyl-1H-indazol-4-yl)pyrazolo[1,5-a]pyridin-2-yl)-2-fluorocyclopropane-1-carboxamide], the 50% inhibitory concentration (IC50) was less than 0.1 µM. Then `CC(C#N)Nc1c(F)c(Cl)c(-c2ccn3nc(NC(=O)[C@@H]4C[C@@H]4F)cc3c2)c2cn[nH]c12` (stereo partly drawn) [Example 641, (1S,2S)-N-(5-(5-chloro-7-((1-cyanoethyl)amino)-6-fluoro-1H-indazol-4-yl)pyrazolo[1,5-a]pyridin-2-yl)-2-fluorocyclopropane-1-carboxamide], with less than 0.1 µM; and `O=C(Nc1cc2cc(-c3c(Cl)c(F)c(N4CCC(F)C4)c4[nH]ncc34)ccn2n1)[C@@H]1C[C@@H]1F` (stereo partly drawn) [Example 642, (1S,2S)-N-(5-(5-chloro-6-fluoro-7-(3-fluoropyrrolidin-1-yl)-1H-indazol-4-yl)pyrazolo[1,5-a]pyridin-2-yl)-2-fluorocyclopropane-1-carboxamide], with less than 0.1 µM; and `CC(C#N)N(C(=O)OCc1ccccc1)c1c(F)c(Cl)c(-c2ccn3nc(NC(=O)[C@@H]4C[C@@H]4F)cc3c2)c2cn[nH]c12` (stereo partly drawn) [Example 643, benzyl (5-chloro-6-fluoro-4-(2-((1S,2S)-2-fluorocyclopropane-1-carboxamido)pyrazolo[1,5-a]pyridin-5-yl)-1H-indazol-7-yl)(1-cyanoethyl)carbamate], with 0.101 to 0.5 µM. In the case of `Cc1cccn1-c1c(F)c(Cl)c(-c2ccn3nc(NC(=O)[C@@H]4C[C@@H]4F)cc3c2)c2cn[nH]c12` [Example 644, (1S,2S)-N-(5-(5-chloro-6-fluoro-7-(2-methyl-1H-pyrrol-1-yl)-1H-indazol-4-yl)pyrazolo[1,5-a]pyridin-2-yl)-2-fluorocyclopropane-1-carboxamide], the IC50 is less than 0.1 µM. Turning to `CSc1c(F)c(Cl)c(-c2ccn3nc(NC(=O)O[C@@H]4COC[C@H]4C)cc3c2)c2cn[nH]c12` [Example 645, (3S,4R)-4-methyltetrahydrofuran-3-yl (5-(5-chloro-6-fluoro-7-(methylthio)-1H-indazol-4-yl)pyrazolo[1,5-a]pyridin-2-yl)carbamate], the IC50 was less than 0.1 µM. For the compound `C[C@H]1[C@H](C(=O)Nc2cc3cc(-c4c(Cl)c(F)c(N(C)C)c5[nH]ncc45)ccn3n2)[C@H]1c1cnn(C)c1` [Example 646, (1S,2R,3S)-N-(5-(5-chloro-7-(dimethylamino)-6-fluoro-1H-indazol-4-yl)pyrazolo[1,5-a]pyridin-2-yl)-2-methyl-3-(1-methyl-1H-pyrazol-4-yl)cyclopropane-1-carboxamide], the IC50 is less than 0.1 µM. Next, `CN(C)c1c(F)c(Cl)c(-c2ccn3nc(NC(=O)NC4CC4)cc3c2)c2cn[nH]c12` [Example 647, 1-(5-(5-chloro-7-(dimethylamino)-6-fluoro-1H-indazol-4-yl)pyrazolo[1,5-a]pyridin-2-yl)-3-cyclopropylurea]: less than 0.1 µM. Then `C[C@@H]1[C@H](C(=O)Nc2cc3cc(-c4c(Cl)c(F)c(N(C)C)c5[nH]ncc45)ccn3n2)[C@H]1c1cnn(C)c1` [Example 648, (1S,2S,3S)-N-(5-(5-chloro-7-(dimethylamino)-6-fluoro-1H-indazol-4-yl)pyrazolo[1,5-a]pyridin-2-yl)-2-methyl-3-(1-methyl-1H-pyrazol-4-yl)cyclopropane-1-carboxamide], with less than 0.1 µM; and `CN(C)C(=O)c1ccn(-c2c(F)c(Cl)c(-c3ccn4nc(NC(=O)[C@@H]5C[C@@H]5F)cc4c3)c3cn[nH]c23)c1` [Example 649, 1-(5-chloro-6-fluoro-4-(2-((1S,2S)-2-fluorocyclopropane-1-carboxamido)pyrazolo[1,5-a]pyridin-5-yl)-1H-indazol-7-yl)-N,N-dimethyl-1H-pyrrole-3-carboxamide], with less than 0.1 µM. `CC(C)Oc1c(F)c(Cl)c(-c2ccn3nc(NC(=O)[C@@H]4C[C@@H]4F)cc3c2)c2cn[nH]c12` [Example 650, (1S,2S)-N-(5-(5-chloro-6-fluoro-7-isopropoxy-1H-indazol-4-yl)pyrazolo[1,5-a]pyridin-2-yl)-2-fluorocyclopropane-1-carboxamide]: the IC50 was less than 0.1 µM. Turning to `O=C(Nc1cc2cc(-c3c(Cl)c(F)c(C4CCCC4)c4[nH]ncc34)ccn2n1)[C@@H]1C[C@@H]1F` [Example 651, (1S,2S)-N-(5-(5-chloro-7-cyclopentyl-6-fluoro-1H-indazol-4-yl)pyrazolo[1,5-a]pyridin-2-yl)-2-fluorocyclopropane-1-carboxamide], the half-inhibitory concentration (IC50) is less than 0.1 µM.

In the case of `CC(Nc1c(F)c(Cl)c(-c2ccn3nc(NC(=O)[C@@H]4C[C@@H]4F)cc3c2)c2cn[nH]c12)C1CC1` (stereo partly drawn) [Example 653, (1S,2S)-N-(5-(5-chloro-7-((1-cyclopropylethyl)amino)-6-fluoro-1H-indazol-4-yl)pyrazolo[1,5-a]pyridin-2-yl)-2-fluorocyclopropane-1-carboxamide], the half-maximal inhibitory concentration (IC50) is less than 0.1 µM. Regarding `O=C(Nc1cc2cc(-c3c(Cl)c(F)c(NCC4CC4)c4[nH]ncc34)ccn2n1)[C@@H]1C[C@@H]1F` [Example 654, (1S,2S)-N-(5-(5-chloro-7-((cyclopropylmethyl)amino)-6-fluoro-1H-indazol-4-yl)pyrazolo[1,5-a]pyridin-2-yl)-2-fluorocyclopropane-1-carboxamide], the IC50 is less than 0.1 µM.
